Test [1] relates to metrazol induced convulsions. Briefly: animal or person. It counts as in vivo, mice.
The next test relates to rats. In words: Vogel test. In kind it is in vivo. As to conditions: i.c.v., b-CD, 10 ug. From the text: The Vogel test is based on the development of a conflict between a highly motivated behavior and an aversion. For this test, the strong motivation is thirst. The animal is water deprived for 12-16 hrs to produce the motivation to drink. During the training period the animals are exposed to the testing environment so they become accustomed to the drinking spout and minimize the fear of a novel environment. Following training, the animals are allowed access to water for 2 hrs. During this time, the animals will drink and eat their normal amount of water and food, compensating for the deprivation time. However, this schedule still produces a strong motivation to drink during the testing period.
Having been deprived of water for twelve to sixteen hours, an animal is placed in a test cage where it is allowed to drink freely for five minutes. This period is used to habituate the animal to the environment and the drinking spout Following the training period, animals have access to water and food in their home cage for 2 hrs. Food is available at all times. Twenty-four hours later, drug is administered to the animal intracerebroventricularly.
After an indicated delay started from the time of injection the animal is again placed in the test cage for ten minutes. A computer counts each time the animal licks, and after every twentieth lick administers a mild electric stimulus across the tongue and/or feet. The electrical stimulus consists of a 0.6 mA current with a duration of 100 msec. This procedure produces a state of conflict for the animal that is reduced by the administration of clinically used anxiolytic agents (i.e., Valium). For dose-response curves, separate groups of animals are injected with increasing doses of test drug and are tested at a predetermined time.

Another test deals with GR complex. In words: modulation of [35S]TBPS binding in rat cerebral cortex P2 homogenate. On the set-up: species or system Sprague-Dawley rats; IMAX: unit not given here. A digest of the protocol: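 Rat (male Sprague-Dawley) cortical P2 homogenate, 0.5 mg protein, in 50 mM Na/K phosphate pH 7.4, 200 mM NaCl, incubated 90 min at 25° C with 2 nM [35S]TBPS plus GABA and (+)bicuculline, compounds added in DMSO. Filter-bound radioactivity counted; nonspecific binding defined with […].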

`CC(=O)[C@H]1CC[C@H]2[C@@H]3CC[C@H]4C[C@H](O)CC[C@]4(C)[C@H]3CC[C@]12C` [3α-hydroxy-5α-pregnan-20-one, reference compound]: in test [1] (IP, 50% hpbcd, 10 mg/kg, 10 minutes prior to metrazol (85 mg/kg)), the “% Protected” value worked out at 100%. Moreover, the ED50 in test [1] (Mus musculus, metrazol s.c., steroid i.p., 20% hydroxypropyl-β-cyclodextrin in water) came out at 4.9 mg/kg. The “Vogel (% of control)” value with rats is on record as 431.1 % of control. The half-maximal inhibitory concentration (IC50) at GR complex (concentration of compounds to inhibit 50% of control [35S]TBPS binding, 2 nM [35S]TBPS, 25°C, 90 minutes, no unit printed) was 37 nM. The compound also had an IMAX in the test on GR complex (maximum inhibition of [35S]TBPS binding, I* = Inactive) of 95.

For the origin of these results see EP0808325B1, “[…] […] SERIES FOR […] GABA RECEPTOR” (priority 1994, dated 1996).
